From paper PMC4887496, “The Mouthparts Enriched Odorant Binding Protein 11 of the Alfalfa Plant Bug Adelphocoris lineolatus Displays a Preferential Binding Behavior to Host Plant Secondary Metabolites” (Frontiers in Physiology, 2016)

Test system: AlucOBP36
Assay: not given
Parameters: method as in Hua et al., 2012
Details: antennae expressed AlucOBP36; ref Hua et al., 2012; cited from earlier work

In the case of `C[C@@H]1O[C@@H](OC[C@H]2O[C@@H](Oc3c(-c4ccc(O)c(O)c4)oc4cc(O)cc(O)c4c3=O)[C@H](O)[C@@H](O)[C@@H]2O)[C@H](O)[C@H](O)[C@H]1O.O` [Rutin hydrate], the “binding abilities to AlucOBP36 (in words)” value is listed as “better binding abilities”.

Target: T1, recombinant AlinOBP11 (Adelphocoris lineolatus, UniProt F4Y5P9)
T1 sequence (F4Y5P9 entry or part of it): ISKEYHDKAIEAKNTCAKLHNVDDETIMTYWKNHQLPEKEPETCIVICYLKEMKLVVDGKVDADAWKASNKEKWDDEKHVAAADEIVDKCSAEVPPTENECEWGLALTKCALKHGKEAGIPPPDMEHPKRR
Assay: Binding of fluorescent probe 1-NPN to recombinant AlinOBP11 (fluorescence titration, Scatchard plot)
Details: 2 μM protein in 50 mM Tris-HCl pH 7.4, 1-NPN 1 to 16 μM; read-out: dissociation constant of the AlinOBP11/1-NPN complex

Compound `c1ccc(Nc2cccc3ccccc23)cc1` [1-NPN, N-phenyl-1-naphthylamine] has a Kd of 5.86 ± 0.47 µM.

Target: T1, recombinant AlinOBP11
Assay: biochemical
Assay type: binding
Details: not given

`CCCCCCO` [1-Hexanol] and `CCCCCCC=O` [Heptanal] cannot be ordered by IC50: > 30 µM for the first, > 30 µM for the second.

`CCCCC(C)=O` [2-Hexanone] and `CCCC(=O)OCC` [Ethyl butyrate] cannot be ordered by IC50: > 30 µM for the first, > 30 µM for the second.

`CC(=O)CCC=C(C)C` [6-Methyl-5-hepten-2-one] and `CCCCCC=O` [Hexanal] cannot be ordered by IC50: > 30 µM for the first, > 30 µM for the second.

`CC(=O)c1ccccc1` [Acetophenone] and `O=Cc1ccccc1` [Benzaldehyde] cannot be ordered by IC50: > 30 µM for the first, > 30 µM for the second.

Compared with `Cc1cc2c(C(C)C)c(O)c(O)c(C=O)c2c(O)c1-c1c(C)cc2c(C(C)C)c(O)c(O)c(C=O)c2c1O` [Gossypol], `CC1=CC[C@H](C(C)C)C=C1` [α-Phellandrene] is 5.9-fold higher in IC50: 4.45 ± 0.34 µM for the first, 26.2 ± 0.52 µM for the second. The first is the more potent here.

`c1ccc2[nH]ccc2c1` [Indole] and `COC(=O)c1ccccc1O` [Methyl salicylate] cannot be ordered by IC50: > 30 µM for the first, > 30 µM for the second.

`CC/C=C\CCO` [cis-3-Hexen-1-ol] and `CCC/C=C/C=O` [trans-2-Hexenal] cannot be ordered by IC50: > 30 µM for the first, > 30 µM for the second.

`C=C1CC/C=C(\C)CC[C@@H]2[C@@H]1CC2(C)C` [β-Caryophyllene] and `C=C1CCC2CC1C2(C)C` (stereo not drawn) [β-Pinene] cannot be ordered by IC50: > 30 µM for the first, > 30 µM for the second.

For `CC(=O)/C=C/C1=C(C)CCCC1(C)C` [β-Ionone], the IC50 was > 30 µM.

First: Cc1cc2c(C(C)C)c(O)c(O)c(C=O)c2c(O)c1-c1c(C)cc2c(C(C)C)c(O)c(O)c(C=O)c2c1O [Gossypol]
Second: CC1=CC[C@H](C(C)C)C=C1 [α-Phellandrene]
The Ki of the first is 5.9-fold lower: 3.43 ± 0.32 µM for the first, 20.1 ± 0.41 µM for the second. The first binds more tightly here.

Same assay, conditions: 2 μM protein, 2 μM 1-NPN, 50 mM Tris-HCl pH 7.4, competitor 2 to 30 μM, 25°C; read-out: IC50 (μM) AlinOBP11

First: C=CC(C)(O)CCC=C(C)CCC=C(C)C (mixture of isomers) [Nerolidol]
Second: CCCCCC(C)=O [2-Heptanone]
The IC50 of the first is lower: 27.2 ± 0.71 µM for the first, > 30 µM for the second. The first is the more potent here.

`CCCCC(C)O` (stereo not shown) [2-Hexanol] and `CCCCCCC(C)=O` [2-Octanone] cannot be ordered by IC50: > 30 µM for the first, > 30 µM for the second.

`Cc1ccc(C=O)cc1C` [3,4-Dimethyl-benzaldehyde] and `CCCC(=O)CC` [3-Hexanone] cannot be ordered by IC50: > 30 µM for the first, > 30 µM for the second.

Going from `Oc1cc(O)c2c(c1)O[C@@H](c1ccc(O)c(O)c1)[C@H](O)C2` [(−)-Catechin] to `CCCCCOC(C)=O` [Amyl acetate], the IC50 rises from 19.3 ± 0.93 µM to > 30 µM. The first is the more potent here.

`CCCCOC(=O)CCC` [Butyl butyrate] and `C=C/C(C)=C/CC=C(C)C` [E-β-Ocimene] cannot be ordered by IC50: > 30 µM for the first, > 30 µM for the second.

`CCCCCCOC(=O)CCC` [Hexyl butyrate] and `CCCCCCOC(=O)CCCCC` [Hexyl hexanoate] cannot be ordered by IC50: > 30 µM for the first, > 30 µM for the second.

`C=C(C)[C@H]1CC=C(C)CC1` [Limonene] and `C=CC(=C)CCC=C(C)C` [Myrcene] cannot be ordered by IC50: > 30 µM for the first, > 30 µM for the second.

`CCCCCCCCC=O` [Nonanal] and `CCCCCCCCCOC(C)=O` [Nonyl acetate] cannot be ordered by IC50: > 30 µM for the first, > 30 µM for the second.

`CCCCCCCC=O` [Octanal] and `CCCCCO` [Pentanol] cannot be ordered by IC50: > 30 µM for the first, > 30 µM for the second.

Going from `C[C@@H]1O[C@@H](OC[C@H]2O[C@@H](Oc3c(-c4ccc(O)c(O)c4)oc4cc(O)cc(O)c4c3=O)[C@H](O)[C@@H](O)[C@@H]2O)[C@H](O)[C@H](O)[C@H]1O.O` [Rutin hydrate] to `CCCCCCCCCCC` [Undecane], the IC50 rises from 9.89 ± 1.61 µM to > 30 µM. The first is the more potent here.

`CCCCC=O` [Valeraldehyde] and `CC/C=C\CCOC(C)=O` [cis-3-hexenyl acetate] cannot be ordered by IC50: > 30 µM for the first, > 30 µM for the second.

Going from `CC(C)=CCC/C(C)=C/CC/C(C)=C/CO` [trans,trans-Farnesol] to `CCC/C=C/COC(=O)CCC` [trans-2-hexenyl butyrate], the IC50 rises from 25.2 ± 2.36 µM to > 30 µM. The first is the more potent here.

`C=CC(=C)CC/C=C(\C)CCC=C(C)C` [trans-β-Farnesene] and `C/C1=C\CC/C(C)=C/CC(C)(C)/C=C/C1` [α-Humulene] cannot be ordered by IC50: > 30 µM for the first, > 30 µM for the second.

With (+)-α-Pinene the IC50 was > 30 µM.

Same assay, conditions: […]; 2 μM protein, 2 μM 1-NPN, pH 7.4; read-out: Ki (μM) AlinOBP11

`Oc1cc(O)c2c(c1)O[C@@H](c1ccc(O)c(O)c1)[C@H](O)C2` [(−)-Catechin] gave a Ki of 15.3 ± 0.7 µM.

Same assay, conditions: calculated from IC50: Ki = [IC50]/(1+[1-NPN]/K1-NPN); 2 μM protein, 2 μM 1-NPN, pH 7.4; read-out: Ki (μM) AlinOBP11

`C=CC(C)(O)CCC=C(C)CCC=C(C)C` (mixture of isomers) [Nerolidol] and `CC(C)=CCC/C(C)=C/CC/C(C)=C/CO` [trans,trans-Farnesol] are within error of each other in Ki: 20.8 ± 0.55 µM for the first, 19.3 ± 1.78 µM for the second.

`C[C@@H]1O[C@@H](OC[C@H]2O[C@@H](Oc3c(-c4ccc(O)c(O)c4)oc4cc(O)cc(O)c4c3=O)[C@H](O)[C@@H](O)[C@@H]2O)[C@H](O)[C@H](O)[C@H]1O.O` [Rutin hydrate] gave a Ki of 7.78 ± 1.23 µM.
